From publication PMC4790851, “Iminosugars Inhibit Dengue Virus Production via Inhibition of ER Alpha-Glucosidases—Not Glycolipid Processing Enzymes” (PLoS Neglected Tropical Diseases, 2016)
Read-outs that look alike come from different tables or passages of the source.

Key:
DENV = test system: DENV; design: method as in PMID 23070155, PMID 23376501, PMID 22020302, PMID 22867971; conditions: post-exposure therapeutic administration; cited from earlier work
DENV2 strain 16681 = experiment: In vitro antiviral assay: infectious DENV titer from infected MDMΦs by LLC-MK2 plaque assay; type: cell-based, dengue virus serotype 2
ER α-glucosidase II = molecular target: T1, ER α-glucosidase II (Homo sapiens, UniProt Q14697); experiment: Free oligosaccharide analysis in MDMΦs: Glc1Man4GlcNAc1; type: cell-based; conditions: 48 h; for accumulation of Glc1Man4GlcNAc1: 1 μM, MDMΦs, all donors; for FOS representative of ER α-glucosidase II inhibition (Glc1Man4GlcNAc1): MNTD of iminosugar (NB-DNJ 100 μM), uninfected MDMΦs
T1 construct: endogenous in cells; host or cells: primary human monocyte-derived macrophages (MDMΦ)
T1 sequence (Q14697 29-944): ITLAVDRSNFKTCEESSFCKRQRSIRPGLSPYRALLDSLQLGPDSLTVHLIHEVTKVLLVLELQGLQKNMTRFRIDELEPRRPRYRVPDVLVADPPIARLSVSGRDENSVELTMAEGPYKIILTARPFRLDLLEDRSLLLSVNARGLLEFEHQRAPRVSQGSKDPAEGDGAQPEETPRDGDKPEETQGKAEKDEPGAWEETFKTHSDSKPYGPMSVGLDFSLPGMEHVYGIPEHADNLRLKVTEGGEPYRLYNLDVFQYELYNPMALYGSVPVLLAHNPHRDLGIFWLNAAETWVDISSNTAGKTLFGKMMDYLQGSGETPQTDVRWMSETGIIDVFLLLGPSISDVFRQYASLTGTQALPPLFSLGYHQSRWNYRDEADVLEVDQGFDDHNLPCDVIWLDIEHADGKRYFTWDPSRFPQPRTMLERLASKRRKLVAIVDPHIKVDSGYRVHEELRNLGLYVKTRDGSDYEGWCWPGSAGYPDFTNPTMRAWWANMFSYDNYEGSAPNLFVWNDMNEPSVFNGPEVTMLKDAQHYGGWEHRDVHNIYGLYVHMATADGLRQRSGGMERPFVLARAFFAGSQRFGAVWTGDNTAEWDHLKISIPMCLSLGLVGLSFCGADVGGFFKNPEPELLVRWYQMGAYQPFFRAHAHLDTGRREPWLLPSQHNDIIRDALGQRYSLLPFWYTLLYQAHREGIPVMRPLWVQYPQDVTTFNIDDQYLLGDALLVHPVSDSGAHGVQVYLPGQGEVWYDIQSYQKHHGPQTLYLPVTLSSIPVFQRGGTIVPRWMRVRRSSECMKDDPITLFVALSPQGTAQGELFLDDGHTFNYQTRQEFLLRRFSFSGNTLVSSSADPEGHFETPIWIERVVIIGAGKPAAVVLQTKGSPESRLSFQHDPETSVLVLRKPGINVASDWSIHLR
T1 sequence (P14314 15-528 partner): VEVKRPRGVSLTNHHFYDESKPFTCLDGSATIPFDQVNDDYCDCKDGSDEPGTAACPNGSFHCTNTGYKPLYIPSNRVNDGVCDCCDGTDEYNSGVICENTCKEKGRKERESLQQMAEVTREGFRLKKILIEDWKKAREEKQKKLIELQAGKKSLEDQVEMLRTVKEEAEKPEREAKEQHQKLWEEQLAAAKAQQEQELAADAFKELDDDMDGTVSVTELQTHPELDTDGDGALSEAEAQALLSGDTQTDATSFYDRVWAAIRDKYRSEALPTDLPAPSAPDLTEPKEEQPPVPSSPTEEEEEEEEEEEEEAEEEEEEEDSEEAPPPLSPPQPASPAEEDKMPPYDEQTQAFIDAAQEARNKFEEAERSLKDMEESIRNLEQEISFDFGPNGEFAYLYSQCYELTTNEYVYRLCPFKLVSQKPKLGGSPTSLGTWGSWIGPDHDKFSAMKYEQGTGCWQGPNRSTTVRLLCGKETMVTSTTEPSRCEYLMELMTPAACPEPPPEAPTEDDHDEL

[1] = test system: lysosomal β-N-acetylhexosaminidase; experiment: Free oligosaccharide analysis in MDMΦs: hexosaminidase-related FOS; type: cell-based, human; conditions: MNTD, 48 h
Protocol: MDMΦ were infected with DENV2 16681 diluted to a multiplicity of infection (MOI) of 1 in X-VIVO10 without supplements for 90 minutes (20°C, with rocking). Upon removal of virus, fresh MDMΦ growth medium without IL-4 but containing serial dilutions of drug or control was placed on the cells, and cells were incubated for 48 hours (37°C, 5% CO2). For collection of infectious virus, supernatant was harvested and centrifuged for 5 minutes (room temperature, 400 x g) to pellet any cells/debris, and supernatants were aliquoted and stored at -80°C until analysis by plaque assay. In the case of FOS and GSL assays where MDMΦ were uninfected, treatments were essentially as above except that no virus was added and cells were washed three times with sterile PBS after 24 or 48 hours as per sample time point. […]
MDMΦ FOS were detected as previously described by Alonzi et al.. […] Glycans were separated by normal phase-high performance liquid chromatography (NP-HPLC), and peak area was used to assess molar quantity in comparison to standards of known identity and quantity. […] Absorbance values (Axxx) at 595 nm and 420 nm were measured, and the ratio of A595 to A420 was used to determine protein concentration in comparison to a serially diluted standard of bovine serum albumin.

[2] = Dengue virus, DENV2, LLC-MK2, 48 h, MDMΦs infected with DENV2 MOI 1, drug 48 h, infectious titer by plaque assay, table values with 95% confidence interval in parentheses, read-out: EC50

| Compound | protection in lethal mouse models of DENV infection (DENV) | EC50 (DENV2 strain 16681; [2]) | Enhancement (fold improvement of antiviral EC50 versus parent compound) (DENV2 strain 16681; EC50 parent / EC50 derivative, parent DNJ or castanospermine) | EC50 (DENV2 strain 16681; MDMΦs infected with DENV2 MOI 1, drug 48 h, infectious titer by plaque assay, table values with 95% confidence interval in parentheses, read-out: EC50) | accumulation of Glc1Man4GlcNAc1 (ER α-glucosidase II) | FOS generated by inhibition of lysosomal β-N-acetylhexosaminidase [1] | FOS representative of ER α-glucosidase II inhibition (Glc1Man4GlcNAc1) (ER α-glucosidase II) | EC50 (DENV2 strain 16681; Dengue virus, DENV2, LLC-MK2, 48 h, MDMΦs, DENV2, 48 h, read-out: 95% CI for antiviral EC50) |
| --- | --- | --- | --- | --- | --- | --- | --- | --- |
| CCCC(=O)O[C@H]1CN2CC[C@H](O)[C@@H]2[C@@H](O)[C@@H]1O [Celgosivir, 6-O-butanoyl-castanospermine] | protection in lethal mouse models | 5 µM | 7 fold | 5.17 µM | led to accumulation of Glc1Man4GlcNAc1 |  |  |  |
| CCCCN1C[C@H](O)[C@@H](O)[C@@H](O)[C@H]1CO [NB-DGJ] |  |  |  |  |  | do produce FOS generated by inhibition of lysosomal β-N-acetylhexosaminidase | fail to produce detectable ER α-glucosidase associated FOS |  |
| CCCCN1C[C@H](O)[C@@H](O)[C@H](O)[C@H]1CO [NB-DNJ, N-butyl-DNJ] | protection in lethal mouse models | 10.6 µM |  |  | led to accumulation of Glc1Man4GlcNAc1 |  | accumulation of peaks representative of inhibition of both α-glucosidases | 7.77 to 14.5 µM |
| CCCCCCCCCN1C[C@H](O)[C@@H](O)[C@@H](O)[C@H]1CO [NN-DGJ] |  |  |  |  |  | do produce FOS generated by inhibition of lysosomal β-N-acetylhexosaminidase |  |  |
